Data on 50 compounds can be found in US20050197371A1, “Urea derivatives as PDGFR modulators” (Ambit Biosciences Corporation, priority 2003, published 2005).

In the first assay the target is T1, PDGFRB(DKIN) (PDGFR-β) (Homo sapiens, UniProt P09619).
T1 construct: PDGFRB(DKIN)
Put plainly: Phage-display competitive binding assay, PDGFRB(DKIN). The conditions noted are these: T7 phage displaying human PDGFR-β, DKIN construct; read-out: Binding Assay: PDGFRB(DKIN). The procedure:
The term “ND” represents non-determined values.
Briefly, T7 phage displaying human PDGFR-β were incubated with an affinity matrix coated with known PDGFR-β inhibitor in the presence of various concentrations of the soluble competitor molecules.
As for `CC(C)(C)c1cc(NC(=O)Nc2ccc(NC(=O)c3ccccc3Cl)cc2)no1` [Compound N23], the Kd was less than 100 nM.

In the case of `CC(C)(C)c1cc(NC(=O)Nc2ccc(NC(=O)c3cccc(Br)c3)cc2)no1` [Compound N24], the Kd lay within 1000 to 10000 nM.

As for `CC(C)(C)c1cc(NC(=O)Nc2ccc(NC(=O)c3cccc(OC(F)F)c3)cc2)no1` [Compound N25], the Kd was in the range of 100 to 1000 nM.

As to `CC(C)(C)c1cc(NC(=O)Nc2ccc(NC(=O)c3ccc4ccccc4c3)cc2)no1` [Compound N28], the Kd is less than 100 nM.

Turning to `CC(C)(C)c1cc(NC(=O)Nc2ccc(NC(=O)c3cc(Cl)cc(Cl)c3)cc2)no1` [Compound N29], the Kd was 100 to 1000 nM.

Turning to `CCc1ccc(C(=O)Nc2ccc(NC(=O)Nc3cc(C(C)(C)C)on3)cc2)cc1` [Compound N32], the Kd is less than 100 nM.

Regarding `CC(C)(C)c1cc(NC(=O)Nc2ccc(NC(=O)c3ccccc3)cc2)no1` [Compound N34], the Kd was less than 100 nM.

For `CC(C)(C)c1cc(NC(=O)Nc2ccc(NC(=O)Cc3ccccc3)cc2)no1` [Compound N35], the Kd is 100 to 1000 nM.

For the compound `CC(C)(C)c1cc(NC(=O)Nc2ccc(NC(=O)c3c(F)cccc3F)cc2)no1` [Compound N37], the Kd was in the range of 1000 to 10000 nM.

Regarding `CC(C)(C)c1cc(NC(=O)Nc2ccc(NC(=O)Cc3ccc(-c4ccccc4)cc3)cc2)no1` [Compound N38], the Kd was 100 to 1000 nM.

Turning to `Cc1[nH]c(C(=O)Nc2ccc(NC(=O)Nc3cc(C(C)(C)C)on3)cc2)c(C)c1CCC(=O)O` [Compound N39], the Kd was less than 100 nM.

For the compound `CC(C)(C)c1cc(NC(=O)Nc2ccc(NC(=O)/C=C/c3ccccc3Cl)cc2)no1` [Compound N40], the Kd lay in the range of 100 to 1000 nM.

Regarding `Cc1cccnc1C(=O)Nc1ccc(NC(=O)Nc2cc(C(C)(C)C)on2)cc1` [Compound N41], the Kd is less than 100 nM.

On to `CC(C)(C)c1cc(NC(=O)Nc2ccc(NC(=O)C(N)Cc3ccccc3F)cc2)no1` (centres unmarked) [Compound N42], for which the Kd fell in the range of 100 to 1000 nM.

For the compound `CC(=O)c1c[nH]c(C(=O)Nc2ccc(NC(=O)Nc3cc(C(C)(C)C)on3)cc2)c1` [Compound N43], the Kd is less than 100 nM.

On to `CC(C)(C)c1cc(NC(=O)Nc2ccc(NC(=O)CC(N)c3ccccc3Cl)cc2)no1` (centres unmarked) [Compound N44], for which the Kd lay within 1000 to 10000 nM.

With `CC(C)(C)c1cc(NC(=O)Nc2ccc(NC(=O)c3cnn(-c4cccc(Cl)c4)c3Br)cc2)no1` [Compound N45], the Kd was 100 to 1000 nM.

For `COc1cc(OC)nc(Oc2ccccc2C(=O)Nc2ccc(NC(=O)Nc3cc(C(C)(C)C)on3)cc2)n1` [Compound N47], the Kd lay in the range of 100 to 1000 nM.

Turning to `COc1cc(OC)nc(Nc2cccc(C(=O)Nc3ccc(NC(=O)Nc4cc(C(C)(C)C)on4)cc3)c2)n1` [Compound N49], the Kd was 100 to 1000 nM.

Regarding `COc1ccnc(Nc2ccc(C(=O)Nc3ccc(NC(=O)Nc4cc(C(C)(C)C)on4)cc3)cc2)n1` [Compound N51], the Kd is less than 100 nM.

`COc1cc(OC)nc(N(C)c2cccc(C(=O)Nc3ccc(NC(=O)Nc4ccon4)cc3)c2)n1` [Compound N53]: the Kd was in the range of 100 to 1000 nM.

As for `CC(C)(C)c1cc(NC(=O)Nc2ccc(NC(=O)c3cc(N4CCOCC4)nc(N4CCOCC4)n3)cc2)no1` [Compound N54], the Kd is less than 100 nM.

For the compound `Cc1nc(C(=O)Nc2ccc(NC(=O)Nc3cc(C(C)(C)C)on3)cc2)c(C(F)(F)F)o1` [Compound N55], the Kd lay within 100 to 1000 nM.

Turning to `COc1cc(OC)nc(Oc2cccnc2C(=O)Nc2ccc(NC(=O)Nc3cc(C(C)(C)C)on3)cc2)n1` [Compound N56], the Kd fell in the range of 1000 to 10000 nM.

In the case of `CC(C)c1cc(NC(=O)Nc2ccc(NC(=O)C3CCN(c4ncc(C(F)(F)F)cc4Cl)CC3)cc2)no1` [Compound N59], the Kd lay in the range of 100 to 1000 nM.

With `CC(C)(C)c1cc(NC(=O)Nc2ccc(NC(=O)c3cc4cccc5c4n(c3=O)CC5)cc2)no1` [Compound N60], the Kd was less than 100 nM.

For `CC(C)(C)c1cc(NC(=O)Nc2ccc(NC(=O)c3cc4cccnc4nc3C(F)(F)F)cc2)no1` [Compound N61], the Kd was in the range of 1000 to 10000 nM.

Turning to `CC(C)(C)c1cc(NC(=O)Nc2ccc(NC(=O)C3=Cc4cc(F)cc(S(C)(=O)=O)c4C3)cc2)no1` [Compound N62], the Kd was 1000 to 10000 nM.

With `Cn1nc(C(F)(F)F)c2cc(C(=O)Nc3ccc(NC(=O)Nc4cc(C(C)(C)C)on4)cc3)sc21` [Compound N64], the Kd was greater than 10000 nM.

`CC(=O)c1ccc(N2CCC(C(=O)Nc3ccc(NC(=O)Nc4cc(C(C)(C)C)on4)cc3)CC2)cc1` [Compound N65]: the Kd lay in the range of 100 to 1000 nM.

Take `CC(C)(C)c1cc(NC(=O)Nc2ccc(NC(=O)Cc3oc(-c4ccc(Cl)cc4)nc3-c3ccccc3)cc2)no1` [Compound N66]: the Kd was 100 to 1000 nM.

With `Cn1nc(C(F)(F)F)c(C(=O)Nc2ccc(NC(=O)Nc3cc(C(C)(C)C)on3)cc2)c1Cl` [Compound N68], the Kd is 100 to 1000 nM.

As for `CC(C)(C)c1cc(NC(=O)Nc2ccc(NC(=O)c3ccccc3O)cc2)no1` [Compound N69], the Kd was in the range of 1000 to 10000 nM.

Regarding `COc1cc(OC)nc(Oc2ccccc2C(=O)Nc2ccc(NC(=O)Nc3cc(C(C)(C)C)on3)cc2)n1` [Compound N70], the Kd is 1000 to 10000 nM.

Consider `CC(C)(C)c1cc(NC(=O)Nc2ccc(NC(=O)c3nnsc3Oc3ccc(Cl)cc3)cc2)no1` [Compound N71], for which the Kd fell in the range of 1000 to 10000 nM.

As to `CC(C)(C)c1cc(NC(=O)Nc2ccc(NC(=O)CSCC(=O)Nc3ccccc3)cc2)no1` [Compound N72], the Kd is 100 to 1000 nM.

For `C=N/C(=N\C)Oc1cccc(C(=O)Nc2ccc(NC(=O)Nc3cc(C(C)(C)C)on3)cc2)c1` [Compound N74], the Kd was less than 100 nM.

Take `CC(C)c1oc(Cl)nc1C(=O)Nc1ccc(NC(=O)Nc2cc(C(C)(C)C)on2)cc1` [Compound N75]: the Kd was less than 100 nM.

Regarding `CC(C)(C)c1cc(NC(=O)Nc2ccc(NC(=O)c3ccc(-n4cc(-c5ccncn5)cn4)cc3)cc2)no1` [Compound N76], the Kd lay in the range of 100 to 1000 nM.

Take `CC(C)(C)c1cc(C(=O)Nc2ccc(NC(=O)Nc3cc(C(C)(C)C)on3)cc2)n(-c2ccccc2)n1` [Compound N78]: the Kd was 1000 to 10000 nM.

Turning to `CC(=O)Oc1cccnc1C(=O)Nc1ccc(NC(=O)Nc2cc(C(C)(C)C)on2)cc1` [Compound N79], the Kd is less than 100 nM.

With `CC(C)(C)c1cc(NC(=O)Nc2ccc(NC(=O)Cc3noc4ccccc34)cc2)no1` [Compound N80], the Kd was less than 100 nM.

Regarding `CC(C)(C)c1cc(NC(=O)Nc2ccc(NC(=O)c3cccc[n+]3[O-])cc2)no1` [Compound N81], the Kd was less than 100 nM.

As for `CC(C)(C)c1cc(NC(=O)Nc2ccc(NC(=O)c3nocc3C(C)(C)C)cc2)no1` [Compound N82], the Kd lay within 100 to 1000 nM.

Take `CCOC(=O)CCc1c(C)[nH]c(C(=O)Nc2ccc(NC(=O)Nc3cc(C(C)(C)C)on3)cc2)c1C` [Compound N83]: the Kd is less than 100 nM.

`Cc1ccc(NC(=O)c2ccc(NC(=O)Nc3cc(C(C)(C)C)on3)cc2)cc1` [Compound N84]: the Kd was less than 100 nM.

On to `CNC(=O)c1ccc(NC(=O)Nc2cc(C(C)(C)C)on2)cc1` [Compound N85], for which the Kd lay in the range of 100 to 1000 nM.

Take `CC(C)(C)c1cc(NC(=O)Nc2ccc(C(N)=O)cc2)no1` [Compound N86]: the Kd lay within 100 to 1000 nM.

As to `CC(C)(C)c1cc(NC(=O)Nc2ccc(C(=O)NCCO)cc2)no1` [Compound N87], the Kd fell in the range of 100 to 1000 nM.

The assay is the same for the next values; noted with them: read-out: Binding Assay: PDGFRB(DKIN); T7 phage displaying human PDGFR-β, DKIN construct.
For `CC(C)(C)c1cc(NC(=O)Nc2ccc(NC(=O)c3cn4c(n3)sc3ccccc34)cc2)no1` [Compound N73], the Kd is less than 100 nM.
